One assay has as its target CYP3A4 (Homo sapiens, UniProt P08684). The assay is described as follows: Biological Test Example 6: CYP3A4 inhibition (erythromycin N-demethylation). Format: in vitro ADME.
For a further assay, the target named is T1, CYP2C9 (Homo sapiens, UniProt P11712).
T1 construct: purchased Invitrogen 2859; host or cells: insect cells infected with baculovirus (microsomes)
The assay can be described thus: Biological Test Example 7: CYP2C9 inhibition (naproxen O-demethylation). Format: in vitro ADME.

A further assay deals with CYP2C19 (Homo sapiens, UniProt P33261). The assay is described as follows: Biological Test Example 8: CYP2C19 inhibition (diazepam N-demethylation). Format: in vitro ADME.
Assay [1] has as its target T2, 11β-HSD1 (Homo sapiens, UniProt P28845). The assay can be described thus: biochemical. The settings on record: for IC50: Biological Test Example 1 IC50 (nM); for pIC50: IC50 Range, Biological Test Example 1; for inhibition at 0.1 µM: read-out: Average % inhibition at 100 nM.
Assay [2] deals with T2, 11β-HSD1. The assay is described as follows: Biological Test Example 4: microsomal 11β-HSD1 in the presence of 50% human plasma. Conditions: for Shift: IC50 in Test Example 4 divided by IC50 in Test Example 1.

Each structure is given as a SMILES string. pIC50: −log10 of the molar value.

Chain of CYP2C19 (P33261 whole entry): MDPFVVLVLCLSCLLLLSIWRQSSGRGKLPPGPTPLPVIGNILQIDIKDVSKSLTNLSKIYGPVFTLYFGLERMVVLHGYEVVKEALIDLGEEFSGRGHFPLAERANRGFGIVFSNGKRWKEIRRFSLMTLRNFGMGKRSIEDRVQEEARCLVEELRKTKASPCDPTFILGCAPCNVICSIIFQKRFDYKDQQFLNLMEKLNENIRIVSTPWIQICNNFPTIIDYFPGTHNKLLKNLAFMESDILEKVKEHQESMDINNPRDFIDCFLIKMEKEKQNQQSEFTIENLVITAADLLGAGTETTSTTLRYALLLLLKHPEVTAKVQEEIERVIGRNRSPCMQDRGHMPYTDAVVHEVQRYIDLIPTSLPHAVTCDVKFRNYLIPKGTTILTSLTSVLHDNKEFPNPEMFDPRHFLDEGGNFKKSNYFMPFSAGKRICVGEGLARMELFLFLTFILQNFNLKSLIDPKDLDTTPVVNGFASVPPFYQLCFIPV
T2 sequence (P28845 whole entry): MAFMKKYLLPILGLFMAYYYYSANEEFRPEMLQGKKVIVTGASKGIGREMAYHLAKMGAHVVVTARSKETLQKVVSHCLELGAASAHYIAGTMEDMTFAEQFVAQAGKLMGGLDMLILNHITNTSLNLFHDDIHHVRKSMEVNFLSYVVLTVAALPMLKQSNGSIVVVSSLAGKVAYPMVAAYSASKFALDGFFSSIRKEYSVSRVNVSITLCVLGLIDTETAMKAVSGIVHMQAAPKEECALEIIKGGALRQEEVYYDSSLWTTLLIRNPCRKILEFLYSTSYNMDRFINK
T1 sequence (P11712 whole entry): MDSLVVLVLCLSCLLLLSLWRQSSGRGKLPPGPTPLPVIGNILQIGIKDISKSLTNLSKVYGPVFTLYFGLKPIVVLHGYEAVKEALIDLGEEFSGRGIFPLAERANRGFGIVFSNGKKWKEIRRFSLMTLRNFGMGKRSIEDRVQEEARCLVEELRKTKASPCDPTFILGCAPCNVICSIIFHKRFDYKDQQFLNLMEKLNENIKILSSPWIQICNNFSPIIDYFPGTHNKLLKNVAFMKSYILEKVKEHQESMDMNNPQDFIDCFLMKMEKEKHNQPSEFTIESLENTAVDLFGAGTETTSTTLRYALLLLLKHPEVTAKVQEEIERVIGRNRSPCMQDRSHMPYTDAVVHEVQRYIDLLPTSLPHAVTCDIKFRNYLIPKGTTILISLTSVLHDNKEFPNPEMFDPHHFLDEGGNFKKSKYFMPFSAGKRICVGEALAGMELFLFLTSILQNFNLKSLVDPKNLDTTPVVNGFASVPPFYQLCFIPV
Chain of CYP3A4 (P08684 whole entry): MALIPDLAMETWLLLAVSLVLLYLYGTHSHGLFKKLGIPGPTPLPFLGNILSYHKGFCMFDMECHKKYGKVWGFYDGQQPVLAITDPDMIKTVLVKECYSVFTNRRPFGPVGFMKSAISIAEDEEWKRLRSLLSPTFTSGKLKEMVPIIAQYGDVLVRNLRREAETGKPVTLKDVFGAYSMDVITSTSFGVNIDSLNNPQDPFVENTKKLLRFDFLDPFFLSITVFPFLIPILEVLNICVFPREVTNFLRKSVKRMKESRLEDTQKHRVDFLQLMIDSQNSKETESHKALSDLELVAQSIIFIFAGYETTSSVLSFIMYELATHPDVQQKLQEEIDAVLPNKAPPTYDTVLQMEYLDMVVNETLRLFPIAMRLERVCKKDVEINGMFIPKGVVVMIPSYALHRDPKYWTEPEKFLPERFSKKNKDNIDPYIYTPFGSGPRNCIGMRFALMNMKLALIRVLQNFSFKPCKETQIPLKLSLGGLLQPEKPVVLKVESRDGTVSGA

Consider `C[C@@H](c1ccc(-c2ccc(C(=O)NC(C)(C)C)nn2)cc1)N1CC[C@](CC(C)(C)C#N)(c2ccccc2)OC1=O` [EXAMPLE 9, N-tert-butyl-6-(4-((S)-1-((R)-6-(2-cyano-2-methylpropyl)-2-oxo-6-phenyl-1,3-oxazinan-3-yl)ethyl)phenyl)pyridazine-3-carboxamide], for which the pIC50 (commonly the IC50 on a negative log10 scale, so that one unit is a factor of ten) was 4.31 on CYP3A4; less than 4.30 at CYP2C9; 6.10 at CYP2C19; more than 7.00 on 11β-HSD1 [1]; 8.29 on 11β-HSD1 [2]. Moreover, the half-inhibitory concentration (IC50) (usually the point on the concentration scale where inhibition reaches its midpoint) against 11β-HSD1 [1] is 1.3 nM. The inhibition (commonly the percentage by which the read-out fell short of the control) at 0.1 µM on 11β-HSD1 [1] was 92.4%. Further, the Shift at 11β-HSD1 [2] is on record as 3.9.

As to `Cc1ccc(-c2ccc([C@H](C)N3CC[C@](CC(C)(C)O)(c4ccc(F)cc4)OC3=O)cc2)nn1` [EXAMPLE 155, (S)-6-(4-fluorophenyl)-6-(2-hydroxy-2-methylpropyl)-3-((S)-1-(4-(6-methylpyridazin-3-yl)phenyl)ethyl)-1,3-oxazinan-2-one], the negative logarithm of the IC50 (pIC50) against CYP3A4 is less than 4.30; on CYP2C9 it was 4.41; on CYP2C19, less than 4.30; on 11β-HSD1 [1] it was more than 7.00; on 11β-HSD1 [2], 8.19. Also, inhibition against 11β-HSD1 [1] was half-maximal at 2.1 nM (IC50). The inhibition at 0.1 µM on 11β-HSD1 [1] was determined as 94.7%. Besides, the Shift on 11β-HSD1 [2] amounted to 3.0.

With `C[C@@H](c1ccc(-c2nc(C(=O)NC(C)(C)C)cs2)cc1)N1CC[C@](CC(C)(C)O)(c2ccccc2)OC1=O` [EXAMPLE 22, N-tert-butyl-2-(4-((S)-1-((S)-6-(2-hydroxy-2-methylpropyl)-2-oxo-6-phenyl-1,3-oxazinan-3-yl)ethyl)phenyl)thiazole-4-carboxamide], the pIC50 against CYP3A4 was 5.28; on CYP2C9, 5.35; against CYP2C19, 5.44; against 11β-HSD1 [1], more than 7.00; at 11β-HSD1 [2], 7.74. Also, the IC50 against 11β-HSD1 [1] stood at 2.8 nM. In addition, the inhibition at 0.1 µM at 11β-HSD1 [1] came to 90%.

Regarding `C[C@@H](c1ccc(-c2ncc(C(=O)N(C)C)s2)cc1)N1CC[C@](CC(C)(C)O)(c2ccccc2)OC1=O` [EXAMPLE 158, 2-(4-((S)-1-((S)-6-(2-hydroxy-2-methylpropyl)-2-oxo-6-phenyl-1,3-oxazinan-3-yl)ethyl)phenyl)-N,N-dimethylthiazole-5-carboxamide], the negative-log IC50 (pIC50) at CYP3A4 was less than 4.30; on CYP2C9 it was less than 4.30; against CYP2C19, less than 4.30; at 11β-HSD1 [1] it was more than 7.00; on 11β-HSD1 [2], 7.89. On 11β-HSD1 [1], this molecule had a concentration for half-maximal inhibition (IC50) of 2.1 nM. For the same molecule, at 11β-HSD1 [1], the inhibition at 0.1 µM stood at 95.7%.

For the molecule `C[C@@H](c1ccc(-c2ccc(C(=O)NC(C)(C)C)cn2)cc1)N1CC[C@](CC(C)(C)O)(c2ccccc2)OC1=O` [EXAMPLE 163, N-tert-butyl-6-(4-((S)-1-((S)-6-(2-hydroxy-2-methylpropyl)-2-oxo-6-phenyl-1,3-oxazinan-3-yl)ethyl)phenyl)nicotinamide], the pIC50 was 4.80 on CYP3A4; 5.16 at CYP2C9; 4.96 against CYP2C19; more than 7.00 against 11β-HSD1 [1]; 8.23 on 11β-HSD1 [2]. On 11β-HSD1 [1], this molecule gave an IC50 of 1.6 nM. Further, on 11β-HSD1 [1], the inhibition at 0.1 µM is 90.3%.

Take `C[C@@H](c1ccc(-c2ccc(S(C)(=O)=O)nc2)cc1)N1CC[C@](CC(C)(C)O)(c2ccccc2)OC1=O` [EXAMPLE 183, (S)-6-(2-Hydroxy-2-methyl-propyl)-3-{(S)-1-[4-(6-methanesulfonyl-pyridin-3-yl)-phenyl]-ethyl}-6-phenyl-[1,3]oxazinan-2-one]: the pIC50 against CYP3A4 was less than 4.30; on CYP2C9, 4.34; against CYP2C19, 4.32; at 11β-HSD1 [1], more than 7.00. The IC50 against 11β-HSD1 [1] was 0.93 nM. The inhibition at 0.1 µM at 11β-HSD1 [1] is 96.4%.

Turning to `C[C@@H](c1ccc(-c2cnc(C(=O)NC(C)(C)C)nc2)cc1)N1CC[C@](CC(C)(C)O)(c2ccccc2)OC1=O` [EXAMPLE 17, N-tert-butyl-5-(4-((S)-1-((S)-6-(2-hydroxy-2-methylpropyl)-2-oxo-6-phenyl-1,3-oxazinan-3-yl)ethyl)phenyl)pyrimidine-2-carboxamide], the pIC50 was 4.34 against CYP3A4; 4.75 on CYP2C9; 5.23 on CYP2C19; more than 7.00 against 11β-HSD1 [1]; 8.24 at 11β-HSD1 [2]. This molecule showed a half-maximal inhibitory concentration (IC50) on 11β-HSD1 [1] of 2.2 nM. The inhibition at 0.1 µM on 11β-HSD1 [1] is 94%. For the same molecule, at 11β-HSD1 [2], the Shift is 2.5.

Consider `Cc1nccc(-c2ccc([C@H](C)N3CC[C@](CC(C)(C)O)(c4ccccc4)OC3=O)cc2)n1` [EXAMPLE 135, (S)-6-(2-hydroxy-2-methylpropyl)-3-((S)-1-(4-(2-methylpyrimidin-4-yl)phenyl)ethyl)-6-phenyl-1,3-oxazinan-2-one], for which the pIC50 at CYP3A4 is 4.64; against CYP2C9, 4.35; against CYP2C19, 4.45; at 11β-HSD1 [1], more than 7.00; on 11β-HSD1 [2] it was 8.27. The molecule further gave an IC50 against 11β-HSD1 [1] of 1.8 nM. In addition, the inhibition at 0.1 µM at 11β-HSD1 [1] stood at 97.3%. Also, the Shift on 11β-HSD1 [2] turned out to be 3.1.

`C[C@@H](c1ccc(-c2ncc(F)cn2)cc1)N1CC[C@](CC(C)(C)O)(c2ccccc2)OC1=O` [EXAMPLE 13, (S)-3-((S)-1-(4-(5-fluoropyrimidin-2-yl)phenyl)ethyl)-6-(2-hydroxy-2-methylpropyl)-6-phenyl-1,3-oxazinan-2-one]: the pIC50 against CYP3A4 is less than 5.00; at CYP2C9, less than 5.00; at CYP2C19, less than 5.00; on 11β-HSD1 [1], more than 7.00; on 11β-HSD1 [2], 7.98. On 11β-HSD1 [1], the IC50 was 1.8 nM. For the same molecule, on 11β-HSD1 [1], the inhibition at 0.1 µM was found to be 92.1%.

Take `C[C@@H](c1ccc(-c2ccc(C3CC3)nn2)cc1)N1CC[C@](CC(C)(C)O)(c2ccccc2)OC1=O` [EXAMPLE 4, (S)-3-((S)-1-(4-(6-cyclopropylpyridazin-3-yl)phenyl)ethyl)-6-(2-hydroxy-2-methylpropyl)-6-phenyl-1,3-oxazinan-2-one]: the pIC50 at CYP3A4 was 4.71; at CYP2C9, 4.70; against CYP2C19, 4.62; against 11β-HSD1 [1] it was more than 7.00; on 11β-HSD1 [2], 8.40. The molecule also came in with an IC50 at 11β-HSD1 [1] of 0.7 nM. Besides, the inhibition at 0.1 µM at 11β-HSD1 [1] is 96.3%. Further, the Shift at 11β-HSD1 [2] came out at 5.8.

Take `C[C@@H](c1ccc(-c2ccc(C(=O)NC3CC3)nn2)cc1)N1CC[C@](CC(C)(C)C#N)(c2ccccc2)OC1=O` [EXAMPLE 11, 6-(4-((S)-1-((R)-6-(2-cyano-2-methylpropyl)-2-oxo-6-phenyl-1,3-oxazinan-3-yl)ethyl)phenyl)-N-cyclopropylpyridazine-3-carboxamide]: the pIC50 was 5.06 against CYP3A4; less than 4.30 against CYP2C9; 5.43 against CYP2C19; more than 7.00 on 11β-HSD1 [1]; 8.47 at 11β-HSD1 [2]. The same molecule registered an IC50 against 11β-HSD1 [1] of 1 nM. In addition, on 11β-HSD1 [1], the inhibition at 0.1 µM came out at 91.6%. At 11β-HSD1 [2], the Shift was found to be 3.5.

Turning to `C[C@@H](c1ccc(-c2ccc(S(C)(=O)=O)cn2)cc1)N1CC[C@](CC(C)(C)O)(c2ccccc2)OC1=O` [EXAMPLE 186, (S)-6-(2-Hydroxy-2-methyl-propyl)-3-{(S)-1-[4-(5-methanesulfonyl-pyridin-2-yl)-phenyl]-ethyl}-6-phenyl-[1,3]oxazinan-2-one], the pIC50 was less than 4.30 against CYP3A4, less than 4.30 on CYP2C9, 4.31 on CYP2C19 and more than 7.00 against 11β-HSD1 [1]. This molecule also came in with a half-maximal inhibitory concentration (IC50) against 11β-HSD1 [1] of 0.9 nM. For the same molecule, at 11β-HSD1 [1], the inhibition at 0.1 µM came out at 95.2%.
